Non-standard residues stand in square brackets, D forms with d. Residues, ends and D or L forms follow the SMILES beside them. No end group written: not given here. *: point of attachment. Propanoyl(3-indol-3-yl) = O=C(CCc1c[nH]c2ccccc12)*; Phe(4-NH2) = Nc1ccc(C[C@H](N)C(=O)O)cc1; 2Nal = N[C@@H](Cc1ccc2ccccc2c1)C(=O)O; Arg(Me) = CNC(=N)NCCC[C@H](N)C(=O)O; Cha = N[C@@H](CC1CCCCC1)C(=O)O; X4 = NC(=S)[C@H](Cc1ccccc1)N*; Abu = CC[C@H](N)C(=O)O; azaGly = NNC(=O)O
Key:
hOT7T175 [1] = target: T1, hOT7T175 (Homo sapiens, UniProt Q969F8, L364H); assay: Intracellular Ca ion level-increasing activity using FLIPR (180 seconds; specific activity to Metastin (1-54)); type: cell-based; conditions: hOT7T175/CHO, relative to Metastin (1-54) = 1
T1 construct: expressed in transfected cells
T1 sequence (Q969F8 whole entry L364H): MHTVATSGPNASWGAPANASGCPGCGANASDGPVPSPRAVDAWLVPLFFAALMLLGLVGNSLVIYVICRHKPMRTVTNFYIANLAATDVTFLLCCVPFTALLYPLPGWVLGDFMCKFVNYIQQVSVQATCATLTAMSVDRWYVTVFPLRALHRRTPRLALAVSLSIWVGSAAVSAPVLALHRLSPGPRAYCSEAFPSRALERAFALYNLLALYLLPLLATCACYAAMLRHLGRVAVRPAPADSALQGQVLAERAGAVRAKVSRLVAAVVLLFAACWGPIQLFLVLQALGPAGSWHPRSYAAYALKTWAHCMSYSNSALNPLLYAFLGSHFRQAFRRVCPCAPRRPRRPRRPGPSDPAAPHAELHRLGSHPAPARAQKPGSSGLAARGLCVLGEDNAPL

hOT7T175 [2] = target: T1, hOT7T175; type: cell-based; conditions: hOT7T175/CHO, FLIPR, evaluation for 40 seconds after initiation of the reaction
Protocol: The intracellular Ca ion level-increasing activity was measured using FLIPR as in TEST EXAMPLE 2.

## CC(C)C[C@H](NC(=O)CNC(=O)[C@H](Cc1ccccc1)NC(=O)[C@H](CO)NC(=O)[C@H](CC(N)=O)NC(=O)[C@@H](Cc1c[nH]c2ccccc12)NC(=O)[C@H](CC(N)=O)NC(=O)[C@@H](N)Cc1ccc(O)cc1)C(=O)N[C@@H](CCCNC(=N)N)C(=O)N[C@@H](Cc1ccccc1)C(N)=O [Compound No. 40]
hOT7T175 [1]
  Specific Act. (intracellular Ca ion level-increasing activity, specific activity to Metastin (1-54)): 30
hOT7T175 [2]
  Specific Act. (EC50/MS10 EC50): 1.6

## CC(C)C[C@H](NC(=O)CNC(=O)[C@H](Cc1ccccc1)NC(=O)[C@H](CO)NC(=O)[C@H](CC(N)=O)NC(=O)[C@H](Cc1c[nH]c2ccccc12)NC(=O)[C@@H](CC(N)=O)NC(=O)[C@@H](N)Cc1ccc(O)cc1)C(=O)N[C@@H](CCCNC(=N)N)C(=O)N[C@@H](Cc1ccccc1)C(N)=O [Compound No. 41]
hOT7T175 [1]
  Specific Act. (intracellular Ca ion level-increasing activity, specific activity to Metastin (1-54)): 10
hOT7T175 [2]
  Specific Act. (EC50/MS10 EC50): 2.7

## CC(C)C[C@H](NC(=O)CNC(=O)[C@H](Cc1ccccc1)NC(=O)[C@H](CO)NC(=O)[C@H](CC(N)=O)NC(=O)[C@H](Cc1c[nH]c2ccccc12)NC(=O)[C@H](CC(N)=O)NC(=O)[C@H](N)Cc1ccc(O)cc1)C(=O)N[C@@H](CCCNC(=N)N)C(=O)N[C@@H](Cc1ccccc1)C(N)=O [Compound No. 42]
hOT7T175 [1]
  Specific Act. (intracellular Ca ion level-increasing activity, specific activity to Metastin (1-54)): 30
hOT7T175 [2]
  Specific Act. (EC50/MS10 EC50): 1.6

## CC(C)C[C@H](NC(=O)CNC(=O)[C@H](Cc1ccccc1)NC(=O)[C@H](CO)NC(=O)[C@H](CC(N)=O)NC(=O)[C@H](Cc1c[nH]c2ccccc12)NC(=O)[C@H](CC(N)=O)NC(=O)[C@@H](N)Cc1ccc(O)cc1)C(=O)N[C@@H](CCCCNC(=N)N)C(=O)N[C@@H](Cc1ccccc1)C(N)=O [Compound No. 97]
hOT7T175 [1]
  Specific Act. (intracellular Ca ion level-increasing activity, specific activity to Metastin (1-54)): 10
hOT7T175 [2]
  Specific Act. (EC50/MS10 EC50): 2.9

## CC(C)C[C@H](NC(=O)CNC(=O)[C@H](Cc1ccccc1)NC(=O)[C@H](CO)NC(=O)[C@H](CC(N)=O)NC(=O)CCc1c[nH]c2ccccc12)C(=O)N[C@@H](CCCNC(=N)N)C(=O)N[C@@H](Cc1ccccc1)C(N)=O [Compound No. 114, 3-(3-Indolyl)propionyl-Asn-Ser-Phe-Gly-Leu-Arg-Phe-NH2] ({Propanoyl(3-indol-3-yl)}-NSFGLRF-NH2)
hOT7T175 [1]
  Specific Act. (intracellular Ca ion level-increasing activity, specific activity to Metastin (1-54)): 3
hOT7T175 [2]
  Specific Act. (EC50/MS10 EC50): 4.1

## CC(C)C[C@H](NC(=O)CNC(=O)[C@H](Cc1ccccc1)NC(=O)[C@H](CO)NC(=O)[C@H](CC(N)=O)NC(=O)[C@H](Cc1c[nH]c2ccccc12)NC(=O)[C@H](CC(N)=O)NC(=O)[C@@H](N)Cc1ccc(O)cc1)C(=O)N[C@@H](CCCNC(=N)N)C(=O)N[C@@H](Cc1ccccc1)C(N)=S [Compound No. 128] (H-YNWNSFGLR-X4)
hOT7T175 [1]
  Specific Act. (intracellular Ca ion level-increasing activity, specific activity to Metastin (1-54)): 10
hOT7T175 [2]
  Specific Act. (EC50/MS10 EC50): 0.5

## CC(C)C[C@H](NC(=O)CNC(=O)[C@H](Cc1ccccc1)NC(=O)[C@H](CO)NC(=O)[C@H](CC(N)=O)NC(=O)[C@H](Cc1c[nH]c2ccccc12)NC(=O)[C@H](CC(N)=O)NC(=O)[C@H](N)Cc1ccc(O)cc1)C(=O)N[C@@H](CCCNC(=N)N)C(=O)N[C@@H](Cc1ccccc1)C(N)=S [Compound No. 146] (H-[dY]NWNSFGLR-X4)
hOT7T175 [1]
  Specific Act. (intracellular Ca ion level-increasing activity, specific activity to Metastin (1-54)): 10
hOT7T175 [2]
  Specific Act. (EC50/MS10 EC50): 1.5

## CC(C)C[C@H](NC(=O)CNC(=O)[C@H](Cc1ccc2ccccc2c1)NC(=O)[C@H](CO)NC(=O)[C@H](CC(N)=O)NC(=O)[C@H](Cc1c[nH]c2ccccc12)NC(=O)[C@H](CC(N)=O)NC(=O)[C@@H](N)Cc1ccc(O)cc1)C(=O)N[C@@H](CCCNC(=N)N)C(=O)N[C@@H](Cc1ccccc1)C(N)=O [Compound No. 152, Tyr-Asn-Trp-Asn-Ser-Nal(2)-Gly-Leu-Arg-Phe-NH2] (H-YNWNS[2Nal]GLRF-NH2)
hOT7T175 [1]
  Specific Act. (intracellular Ca ion level-increasing activity, specific activity to Metastin (1-54)): 5
hOT7T175 [2]
  Specific Act. (EC50/MS10 EC50): 1.4

## CC(C)C[C@H](NC(=O)CNC(=O)[C@H](CC1CCCCC1)NC(=O)[C@H](CO)NC(=O)[C@H](CC(N)=O)NC(=O)[C@H](Cc1c[nH]c2ccccc12)NC(=O)[C@H](CC(N)=O)NC(=O)[C@@H](N)Cc1ccc(O)cc1)C(=O)N[C@@H](CCCNC(=N)N)C(=O)N[C@@H](Cc1ccccc1)C(N)=O [Compound No. 156, Tyr-Asn-Trp-Asn-Ser-Cha-Gly-Leu-Arg-Phe-NH2] (H-YNWNS[Cha]GLRF-NH2)
hOT7T175 [1]
  Specific Act. (intracellular Ca ion level-increasing activity, specific activity to Metastin (1-54)): 2
hOT7T175 [2]
  Specific Act. (EC50/MS10 EC50): 0.9

## CNC(=N)NCCC[C@H](NC(=O)[C@H](CC(C)C)NC(=O)CNC(=O)[C@H](Cc1ccccc1)NC(=O)[C@H](CO)NC(=O)[C@H](CC(N)=O)NC(=O)[C@H](Cc1c[nH]c2ccccc12)NC(=O)[C@H](CC(N)=O)NC(=O)[C@H](N)Cc1ccc(O)cc1)C(=O)N[C@@H](Cc1c[nH]c2ccccc12)C(N)=O [Compound No. 174] (H-[dY]NWNSFGL[Arg(Me)]W-NH2)
hOT7T175 [1]
  Specific Act. (intracellular Ca ion level-increasing activity, specific activity to Metastin (1-54)): 10
hOT7T175 [2]
  Specific Act. (EC50/MS10 EC50): 2.3

## CC[C@H](NC(=O)CNC(=O)[C@H](Cc1ccccc1)NC(=O)[C@H](CO)NC(=O)[C@H](CC(N)=O)NC(=O)[C@H](Cc1c[nH]c2ccccc12)NC(=O)[C@H](CC(N)=O)NC(=O)[C@@H](N)Cc1ccc(O)cc1)C(=O)N[C@@H](CCCNC(=N)N)C(=O)N[C@@H](Cc1ccccc1)C(N)=O [Compound No. 187, Tyr-Asn-Trp-Asn-Ser-Phe-Gly-Abu-Arg-Phe-NH2] (H-YNWNSFG[Abu]RF-NH2)
hOT7T175 [1]
  Specific Act. (intracellular Ca ion level-increasing activity, specific activity to Metastin (1-54)): 1
hOT7T175 [2]
  Specific Act. (EC50/MS10 EC50): 1.9

## CC[C@H](C)[C@H](NC(=O)[C@H](CC(N)=O)NC(=O)[C@H](N)Cc1ccc(O)cc1)C(=O)N[C@@H](CC(N)=O)C(=O)N[C@@H](CO)C(=O)N[C@@H](Cc1ccccc1)C(=O)NCC(=O)N[C@@H](CC(C)C)C(=O)N[C@@H](CCCNC(=N)NC)C(=O)N[C@@H](Cc1ccccc1)C(N)=O [Compound No. 206] (H-[dY]NINSFGL[Arg(Me)]F-NH2)
hOT7T175 [1]
  Specific Act. (intracellular Ca ion level-increasing activity, specific activity to Metastin (1-54)): 10
hOT7T175 [2]
  Specific Act. (EC50/MS10 EC50): 4.8

## CNC(=N)NCCC[C@H](NC(=O)[C@H](CC(C)C)NC(=O)CNC(=O)[C@H](Cc1ccccc1)NC(=O)[C@H](CO)NC(=O)[C@@H](NC(=O)[C@H](Cc1c[nH]c2ccccc12)NC(=O)[C@H](CC(N)=O)NC(=O)[C@H](N)Cc1ccc(O)cc1)[C@@H](C)O)C(=O)N[C@@H](Cc1ccccc1)C(N)=O [Compound No. 208] (H-[dY]NWTSFGL[Arg(Me)]F-NH2)
hOT7T175 [1]
  Specific Act. (intracellular Ca ion level-increasing activity, specific activity to Metastin (1-54)): 1
hOT7T175 [2]
  Specific Act. (EC50/MS10 EC50): 7.3

## CNC(=N)NCCC[C@H](NC(=O)[C@H](CC(C)C)NC(=O)CNC(=O)[C@H](Cc1ccccc1)NC(=O)[C@H](CO)NC(=O)[C@H](C)NC(=O)[C@H](Cc1c[nH]c2ccccc12)NC(=O)[C@H](CC(N)=O)NC(=O)[C@H](N)Cc1ccc(O)cc1)C(=O)N[C@@H](Cc1ccccc1)C(N)=O [Compound No. 210] (H-[dY]NWASFGL[Arg(Me)]F-NH2)
hOT7T175 [1]
  Specific Act. (intracellular Ca ion level-increasing activity, specific activity to Metastin (1-54)): 1
hOT7T175 [2]
  Specific Act. (EC50/MS10 EC50): 9.3

## CNC(=N)NCCC[C@H](NC(=O)[C@H](CC(C)C)NC(=O)CNC(=O)[C@H](Cc1ccccc1)NC(=O)[C@@H](NC(=O)[C@H](CC(N)=O)NC(=O)[C@H](Cc1c[nH]c2ccccc12)NC(=O)[C@H](CC(N)=O)NC(=O)[C@H](N)Cc1ccc(O)cc1)[C@@H](C)O)C(=O)N[C@@H](Cc1ccccc1)C(N)=O [Compound No. 211] (H-[dY]NWNTFGL[Arg(Me)]F-NH2)
hOT7T175 [1]
  Specific Act. (intracellular Ca ion level-increasing activity, specific activity to Metastin (1-54)): 10
hOT7T175 [2]
  Specific Act. (EC50/MS10 EC50): 1.3

## CNC(=N)NCCC[C@H](NC(=O)[C@H](CC(C)C)NC(=O)NNC(=O)[C@H](Cc1ccccc1)NC(=O)[C@H](CO)NC(=O)[C@H](CC(N)=O)NC(=O)[C@H](Cc1ccc(N)cc1)NC(=O)[C@H](CC(N)=O)NC(=O)[C@H](N)Cc1ccc(O)cc1)C(=O)N[C@@H](Cc1ccccc1)C(N)=O [Compound No. 250, D-Tyr-Asn-Phe(4NH2)-Asn-Ser-Phe-AzaGly-Leu-Arg(Me)-Phe-NH2] (H-[dY]N[Phe(4-NH2)]NSF[azaGly]L[Arg(Me)]F-NH2)
hOT7T175 [1]
  Specific Act. (intracellular Ca ion level-increasing activity, specific activity to Metastin (1-54)): 1

## CNC(=N)NCCC[C@H](NC(=O)[C@H](CC(C)C)NC(=O)NNC(=O)[C@H](Cc1ccccc1)NC(=O)[C@H](CO)NC(=O)[C@H](CC(N)=O)NC(=O)[C@H](Cc1ccccc1)NC(=O)[C@H](N)Cc1ccc(O)cc1)C(=O)N[C@@H](Cc1ccccc1)C(N)=O [Compound No. 254, D-Tyr-Phe-Asn-Ser-Phe-AzaGly-Leu-Arg(Me)-Phe-NH2] (H-[dY]FNSF[azaGly]L[Arg(Me)]F-NH2)
hOT7T175 [1]
  Specific Act. (intracellular Ca ion level-increasing activity, specific activity to Metastin (1-54)): 1

## CNC(=N)NCCC[C@H](NC(=O)[C@H](CC(C)C)NC(=O)NNC(=O)[C@H](Cc1ccccc1)NC(=O)[C@H](CO)NC(=O)[C@H](CC(N)=O)NC(=O)[C@H](Cc1ccc2ccccc2c1)NC(=O)[C@H](N)Cc1ccc(O)cc1)C(=O)N[C@@H](Cc1ccccc1)C(N)=O [Compound No. 255, D-Tyr-Nal(2)-Asn-Ser-Phe-AzaGly-Leu-Arg(Me)-Phe-NH2] (H-[dY][2Nal]NSF[azaGly]L[Arg(Me)]F-NH2)
hOT7T175 [1]
  Specific Act. (intracellular Ca ion level-increasing activity, specific activity to Metastin (1-54)): 1

## D-Tyr-Asn-Trp-Gln-Ser-Phe-Gly-Leu-Arg(Me)-Phe-NH2 ([dY]NWQSFGL[Arg(Me)]F-NH2) [Compound No. 209]
hOT7T175 [1]
  Specific Act. (intracellular Ca ion level-increasing activity, specific activity to Metastin (1-54)): ½

## D-Tyr-Asn-Trp-Ser-Ser-Phe-Gly-Leu-Arg(Me)-Phe-NH2 ([dY]NWSSFGL[Arg(Me)]F-NH2) [Compound No. 207]
hOT7T175 [1]
  Specific Act. (intracellular Ca ion level-increasing activity, specific activity to Metastin (1-54)): ½

## H-DNWNSFGLRF-NH2 [Compound No. 75]
hOT7T175 [1]
  Specific Act. (intracellular Ca ion level-increasing activity, specific activity to Metastin (1-54)): 1

## H-YNWNLFGLRF-NH2 [Compound No. 24]
hOT7T175 [1]
  Specific Act. (intracellular Ca ion level-increasing activity, specific activity to Metastin (1-54)): 1

## H-YNWNSFALRF-NH2 [Compound No. 50]
hOT7T175 [1]
  Specific Act. (intracellular Ca ion level-increasing activity, specific activity to Metastin (1-54)): 30

## H-YNWNSFSLRF-NH2 [Compound No. 101]
hOT7T175 [1]
  Specific Act. (intracellular Ca ion level-increasing activity, specific activity to Metastin (1-54)): 10
